From paper PMC10028264, “Synergistic antifungal interaction of N-(butylcarbamothioyl) benzamide and amphotericin B against Cryptococcus neoformans” (Frontiers in Microbiology, 2023)

Legend:
Cryptococcus neoformans [1] = assay: Fungal capsule and cell size (Chinese ink, light microscopy); assay type: cell-based; details: compared to untreated cells; ATCC 34872 and 1172; 48 h; p < 0.05
Procedure: For all assays, fungal cells were incubated in RPMI-MOPS (except when specified) supplemented with BTU-01 and AmB alone at MIC and MFC values or combined at the synergistic MIC values. Untreated fungal cells were considered as control.
Cryptococcus neoformans was cultivated in a minimal capsular induction medium (15 mM glucose, 10 mM MgSO4, 29.4 mM KH2PO4, 13 mM glycine and 3 μM thiamine-HCl, pH 5.5) at 37°C for 7 days ([Frases et al., 2009]). Afterward, a standard fungal suspension was prepared as described above, and the cells (1.0 × 10^7 CFU/mL) were treated with the compounds at 37°C for 48 h. Cells were collected by centrifugation (10,000 × g, 1 min), suspended in an equal volume of Chinese ink on glass slides, spread the smear evenly with coverslips, and observed with a Zeiss Axio Imager 2 microscope (Zeiss, Germany). The capsule size of 100 randomly chosen cells was measured by using the software ImageJ 1.49v.^1 The capsule thickness was determined according to [Spadari et al. (2019)], which consisted of the difference between the diameter of the cell, including the capsule, with the diameter of the body cell within the cell wall.

[2] = tested on: Cryptococcus neoformans biofilm; assay: Antifungal activity on sessile cells, 72-h biofilm, MTT reduction (SMIC80); assay type: cell-based
Procedure: The capacity of C. neoformans strains to form biofilm was evaluated on flat-bottomed 96-well polystyrene plates (Techno Plastic Products, Switzerland), as described by [Martinez and Casadevall (2006)]. Thus, the biofilms were formed in SD broth statically at 37°C for 24, 48, 72, 96, and 120 h, with an inoculum of 1.0 × 10^7 CFU/mL. After each incubation period, the viability of sessile cells was evaluated using the 3-(4,5-dimethylthiazol-2-yl)-2,5-diphenyltetrazolium bromide (MTT, Merck, Brazil) reduction assay according to the manufacturer’s recommendations. The assays were carried out in quintuplicate and performed on two separate occasions.
To evaluate the antifungal activity of the compounds on sessile cells, biofilms were formed for 72 h, washed with saline, and 200-μL aliquots of RPMI-MOPS containing different concentrations of BTU-01 (31.25–1000.0 μg/mL) and/or AmB (0.007–16.0 μg/mL) were added for determining the SMIC (Sessile Minimal Inhibitory Concentration). Untreated and treated biofilms were incubated at 37°C for further 24 h, and then washed with saline. The biofilm viability was analyzed by the MTT reduction assay as described above. The SMICs of BTU-01 and AmB alone and combined were determined by the lowest concentration capable of inhibiting 80% (SCIM80) of the viability of sessile cells compared to the untreated controls. The checkerboard assays were performed to analyze the effect of the combination with BTU-01 and AmB on 72-h biofilms. The results of the combination were interpreted using the FICI as described previously.

Hemolysis assay = assay type: cell-based, human; details: human, human erythrocyte suspension (3%); range over tested concentrations; compound alone; 3 h at 37°C; read-out: percentage of hemolysis
Procedure: The cytotoxicity of BTU-01 (1.95–1000.0 μg/mL) alone and combined with AmB (0.015–16.0 μg/mL) was evaluated on human erythrocytes. Blood from a healthy donor was collected according to the Declaration of Helsinki principles, defibrinated and an erythrocytes suspension (3%) was prepared in 5% glycosylated saline. A total of 100 μL of the erythrocytes suspension was incubated for 3 h at 37°C in wells of U-bottom 96-well polystyrene plates containing different concentrations of the compounds. Wells without the compounds and with 1% Triton X-100 were used as negative and positive hemolysis controls, respectively. The OD of the supernatant was determined at 550 nm with a microtiter plate reader (Synergy HT, BioTek, USA). The percentage of hemolysis was calculated by comparison with the positive control ([Izumi et al., 2012]).
The concentration of BTU-01 capable of causing 90% of hemolysis/cytotoxicity was used to calculate the selectivity index (SI) using the following equation: SI = CC90/MIC.

Cryptococcus neoformans [3] = assay: Time-kill kinetics; assay type: cell-based; details: for difference in CFU counts compared to untreated control cells: BTU-01 MIC, 48 h
Procedure: For all assays, fungal cells were incubated in RPMI-MOPS (except when specified) supplemented with BTU-01 and AmB alone at MIC and MFC values or combined at the synergistic MIC values. Untreated fungal cells were considered as control. The time-kill assay ([CLSI, 1999]) was performed to analyze the rate of fungal killing in the presence of the compounds alone or combined. The fungal cells (1.0 × 10^3 CFU/mL) were added to the wells of U-bottom 96-wells microtiter plates containing RPMI-MOPS supplemented with BTU-01 and/or AmB and were incubated at 37°C. At determined time points (0, 24, and 48 h), 10 μL was removed from each well and 10-fold serial diluted in saline. A 10-μL aliquot of each dilution was inoculated onto SD agar and the CFU counts were carried out after incubation at 37°C for 48 h. Averaged data were plotted as log10 CFU/mL vs. time (h). The fungicidal effect of the compounds was defined as a 99.9% (3 log10) reduction in CFU/mL of the starting inoculum ([[…] et al., 1998]).

[4] = tested on: Cryptococcus neoformans biofilm; assay: Checkerboard assay on 72-h biofilms; assay type: cell-based; details: 72-h biofilm
Procedure: The antifungal effect of BTU-01 combined with AmB was evaluated using the checkerboard broth microdilution assay, according to [Scott et al. (1995)]. […] The Fractional Inhibitory Concentration (FIC) of each compound was determined by the ratio of the MIC obtained when the compounds were tested in combination and the MIC of the compounds tested individually. […] Untreated and treated biofilms were incubated at 37°C for further 24 h, and then washed with saline. The biofilm viability was analyzed by the MTT reduction assay as described above. […] The checkerboard assays were performed to analyze the effect of the combination with BTU-01 and AmB on 72-h biofilms. The results of the combination were interpreted using the FICI as described previously.

[5] = C. neoformans 1172, treated 24 h
[6] = C. neoformans ATCC 34872, treated 24 h

Structure (SMILES)	capsule size (Cryptococcus neoformans [1])	cell size (Cryptococcus neoformans [1])	SMIC80 [2, 5]	SMIC80 [2, 6]	hemolysis at 3 h (Hemolysis assay)	CFU counts (Cryptococcus neoformans [3]; AmB MFC, after 24 h-incubation)	reduction in SMIC80 value in combination ([4]; 1172 strain)	reduction in SMIC80 value in combination ([4]; ATCC 34872)	difference in CFU counts compared to untreated control cells (Cryptococcus neoformans [3]; 1172)	difference in CFU counts compared to untreated control cells (Cryptococcus neoformans [3]; ATCC 34872)	reduction of CFU compared to untreated control (Cryptococcus neoformans [3]; treatment with MFC, 1172 isolate)	CFU counts (Cryptococcus neoformans [3]; treatment with MFC, ATCC 34872)
C[C@@H]1[C@H](O)[C@@H](C)/C=C/C=C/C=C/C=C/C=C/C=C/C=C/[C@H](O[C@@H]2O[C@H](C)[C@@H](O)[C@H](N)[C@@H]2O)C[C@@H]2O[C@](O)(C[C@@H](O)C[C@@H](O)[C@H](O)CC[C@@H](O)C[C@@H](O)CC(=O)O[C@H]1C)C[C@H](O)[C@H]2C(=O)O [Amphotericin B, amphotericin B]	significant reduction	significant reduction	1.0 µg/mL	1.0 µg/mL	0.52 to 1.34%	no CFU counts were detected	8 fold	8 fold	–	–	–	–
CCCCNC(=S)NC(=O)c1ccccc1 [BTU-01, N-(butylcarbamothioyl) benzamide]	significant reduction	significant reduction	> 1000.0 µg/mL	125.0 µg/mL	0 to 3.18%	–	128 fold	16 fold	3 log10	2 log10	5 log CFU	zero CFU counts
